Series [1] deals with β2-adrenergic (Homo sapiens, UniProt P07550). Briefly: Receptor binding β2-adrenergic. The note with it: radioligand [3H]-CGP 12177, read-out: Ki(nM) Compound 1. Here is the method: (§1) Receptor binding data were obtained by CEREP (128, rue Danton, 92500 Rueil-Malmaison, France) or at Solvay Pharmaceuticals B.V., using well documented standard procedures. Affinity for 5-HT1A receptors for instance, was determined by testing the ability of the compounds of the invention to displace [^3H]-2-(di-n-propylamino)-8-hydroxytetralin ([^3H]-8-OH-DPAT) from its specific binding sites in rat frontal cortex homogenates. This test is based on the method described by Gozlan et al. (Nature, 305, (1983), pages 140-142).
Chain of β2-adrenergic (P07550 whole entry): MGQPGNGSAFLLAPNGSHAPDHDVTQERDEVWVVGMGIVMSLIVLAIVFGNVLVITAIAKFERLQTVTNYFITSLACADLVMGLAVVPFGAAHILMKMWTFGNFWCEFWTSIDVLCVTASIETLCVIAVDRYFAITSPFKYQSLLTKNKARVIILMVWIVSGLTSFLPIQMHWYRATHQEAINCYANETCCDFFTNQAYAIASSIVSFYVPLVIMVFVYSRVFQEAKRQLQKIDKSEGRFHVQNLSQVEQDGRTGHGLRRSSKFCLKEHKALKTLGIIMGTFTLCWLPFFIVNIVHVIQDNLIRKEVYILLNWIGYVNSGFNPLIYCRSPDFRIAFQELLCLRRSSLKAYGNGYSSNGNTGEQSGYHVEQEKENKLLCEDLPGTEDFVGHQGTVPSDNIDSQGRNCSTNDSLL
(§2) The binding data collected in the table below were either obtained by CEREP (128, rue Danton, 92500 Rueil-Malmaison, France) or at Solvay Pharmaceuticals B.V., using well documented standard procedures.

In series [2] the target is Neuropeptide Y2 (Homo sapiens, UniProt P49146). Briefly: Receptor binding Neuropeptide Y2. The note with it: radioligand [125I]-PYY, read-out: Ki(nM) Compound 1. As for the experimental part: as §1, §2
Chain of Neuropeptide Y2 (P49146 whole entry): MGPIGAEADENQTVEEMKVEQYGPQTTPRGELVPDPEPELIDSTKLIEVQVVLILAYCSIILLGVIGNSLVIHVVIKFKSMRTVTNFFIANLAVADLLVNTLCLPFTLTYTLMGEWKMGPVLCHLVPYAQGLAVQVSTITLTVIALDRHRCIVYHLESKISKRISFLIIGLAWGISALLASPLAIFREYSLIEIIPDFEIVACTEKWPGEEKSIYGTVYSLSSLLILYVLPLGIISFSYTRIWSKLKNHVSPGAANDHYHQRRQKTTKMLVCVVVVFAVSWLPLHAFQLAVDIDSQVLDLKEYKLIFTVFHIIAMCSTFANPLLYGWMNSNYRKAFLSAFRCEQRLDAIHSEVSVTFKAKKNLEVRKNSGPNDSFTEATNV
In series [3] the target is Muscarine-M2 (Homo sapiens, UniProt P08172). Briefly: Receptor binding Muscarine-M2. The settings on record: radioligand [3H]-AFDX-384, read-out: Ki(nM) Compound 1. Here is the method: as §1, §2
Chain of Muscarine-M2 (P08172 whole entry): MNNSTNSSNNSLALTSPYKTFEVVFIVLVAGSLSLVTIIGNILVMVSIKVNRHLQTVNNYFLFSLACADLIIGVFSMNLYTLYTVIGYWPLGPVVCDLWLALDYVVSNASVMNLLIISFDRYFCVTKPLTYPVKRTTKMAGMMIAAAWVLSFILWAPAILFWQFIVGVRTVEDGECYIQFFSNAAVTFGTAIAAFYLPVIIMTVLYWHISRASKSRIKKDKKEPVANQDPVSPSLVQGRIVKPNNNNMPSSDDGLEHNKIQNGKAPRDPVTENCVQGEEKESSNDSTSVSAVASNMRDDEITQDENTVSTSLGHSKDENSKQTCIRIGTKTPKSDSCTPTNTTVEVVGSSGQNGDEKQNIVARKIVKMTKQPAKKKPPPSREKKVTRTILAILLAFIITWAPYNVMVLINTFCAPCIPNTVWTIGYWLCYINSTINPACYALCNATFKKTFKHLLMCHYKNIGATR
For series [4], the target named is Endothelin-ETB (Homo sapiens, UniProt P24530). Put plainly: Receptor binding Endothelin-ETB. The note with it: radioligand [125I]-endothelin-1, read-out: Ki(nM) Compound 1. Here is the method:
as §1, §2

Series [5] has as its target Muscarine-M5 (Homo sapiens, UniProt P08912). Briefly: Receptor binding Muscarine-M5. The note with it: radioligand [3H]-4-DAMP, read-out: Ki(nM) Compound 1. As for the experimental part: as §1, §2
Series [6] has as its target 5-HT7 (Homo sapiens, UniProt P34969). Put plainly: Receptor binding 5-HT7. The note with it: radioligand [3H]-LSD, read-out: Ki(nM) Compound 1. As for the experimental part: as §1, §2
Series [7] has as its system DBA/2 mice. Put plainly: Anticonvulsant activity: audiogenic seizures in DBA/2 mice. Format: in vivo. The note with it: for ED50: Mus musculus; for behavioural changes: all dosages tested. The source says: DBA/2 mice weighing 6-12 g (22-26 days old; either sex, Harlan Italy Correzzana, Milano, Italy) are housed in groups of 8-10 under a 12-h light/dark cycle (lights on at 7:00 a.m.) with food and water available ad libitum. The experimental protocol is approved by University of Catanzaro Ethical Committee. All procedures are in compliance with the Nationals Institutes of Health Guide for Care and Use of Laboratory Animals (Publication No. 85-23, revised 1985) and European Communities Council Directive of 24 Nov. 1986 (86/609 EEC).
The experiments are performed according to the method previously described by De Sarro et al. (1984), Eur. J. Pharmacol., 104, 55-60. Compounds of the invention or vehicle (controls) are given intraperitoneally (i.p.) and orally (p.o.) as freshly sonicated solutions in methylcellulose 1%. For the […]; pretreatment time at 30 and 60 min., For oral treatment, all animals are pretreated either at 30 or 60 min using the compounds of the invention at doses of 0.1, 0.3, 3, 6 and 10 mg/kg p.o. At least 10 mice per dose are used. After pretreatment time, each mouse is placed under a hemispheric perspex dome (58 cm in diameter) and 1 min is allowed for habituation and assessment of locomotor activity. Animals are challenged with a 12-16 kHz sinusoidal tone at 109 dB. Seizure response is assessed by two independent observers. The sound evoked behaviour is coded using the following scale: 0=no response, 1=wild running, 2=clonus, 3=tonic flexor and/or extensor; 4=respiratory arrest, on the basis of the concordant opinion of the observers. […] The maximum response is recorded for each animal. Rectal temperature is recorded immediately prior to auditory testing using an Elektrolaboratoriet thermometer type T.E.3. Behavioral changes are observed during the period between drug administration and auditory testing. In these experiments separate vehicle-treated and drug-treated groups are used at each pretreatment time (15 min-60 min). Percentage of mice showing wild running, clonic or tonic phase and the duration of anticonvulsant activity are compared to control group and statistically analyzed.
Statistical comparison between groups of control and drug-treated DBA/2 mice is made using Fisher's exact probability test (incidence of the seizure phases). The percentage incidence of each phase of the audiogenic seizure is determined for each drug. These values are plotted against the corresponding doses by a computer construction of the dose-effect curves for calculation of ED50 (with 95% confidence limits). The ED50 values for each compound are calculated using a computer program of the method of Litchfield and Wilcoxon (1949). At least 32 animals are used to calculate each ED50 value.
For systemic injections and oral administrations, all compounds are given intraperitoneally (0.1 ml/10 g of body weight of the mouse) as a freshly prepared solution in methylcellulose 1%. In order to avoid the light sensitivity, weighing and handling are carried out under sodium vapor lamps and the substances are protected from light during the experiments.

Series [8] addresses CCKA (Homo sapiens, UniProt P32238). Put plainly: Receptor binding CCKA. The settings on record: radioligand [3H]-devazepide, read-out: Ki(nM) Compound 1. Here is the method: as §1, §2
Series [9] deals with T1, 5-HT1A (Rattus norvegicus, UniProt P19327).
T1 construct: from tissue; host or cells: whole animal (in vivo behavioural test)
T1 sequence (P19327 whole entry): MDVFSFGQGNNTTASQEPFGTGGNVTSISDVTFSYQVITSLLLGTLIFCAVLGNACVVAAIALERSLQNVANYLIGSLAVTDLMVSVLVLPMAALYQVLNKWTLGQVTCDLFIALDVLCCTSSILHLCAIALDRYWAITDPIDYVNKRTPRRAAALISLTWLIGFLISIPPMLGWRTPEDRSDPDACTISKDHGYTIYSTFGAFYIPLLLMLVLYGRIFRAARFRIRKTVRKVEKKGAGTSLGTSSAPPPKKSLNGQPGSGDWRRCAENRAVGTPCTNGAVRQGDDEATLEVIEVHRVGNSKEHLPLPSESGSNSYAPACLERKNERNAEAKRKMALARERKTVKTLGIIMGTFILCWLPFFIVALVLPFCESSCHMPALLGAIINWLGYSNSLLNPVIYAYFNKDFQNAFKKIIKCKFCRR
Briefly: In vivo 5-HT1A agonism: lower lip retraction (LLR). The settings on record: 60 minutes after oral administration. As for the experimental part:
Lower lip retraction was measured according to the method described by Berendsen et al., (Pharmacol. Biochem. Behav. 33, (1989), 821-827).

Series [10] has as its target μ-opiate (Rattus norvegicus, UniProt P33535). Briefly: Receptor binding μ-opiate. The note with it: radioligand [3H]-DAMGO, read-out: Ki(nM) Compound 1. As for the experimental part: as §1, §2
Series [11] concerns the target Dopaminereuptake (Homo sapiens, UniProt Q01959). Briefly: Binding Dopamine reuptake. The settings on record: radioligand [3H]-GBR 12935, read-out: Ki(nM) Compound 1. Here is the method:
as §1, §2

SMILES strings stand for the structures. Read-outs that look alike come from different tables or passages of the source.

Chain of Endothelin-ETB (P24530 27-442): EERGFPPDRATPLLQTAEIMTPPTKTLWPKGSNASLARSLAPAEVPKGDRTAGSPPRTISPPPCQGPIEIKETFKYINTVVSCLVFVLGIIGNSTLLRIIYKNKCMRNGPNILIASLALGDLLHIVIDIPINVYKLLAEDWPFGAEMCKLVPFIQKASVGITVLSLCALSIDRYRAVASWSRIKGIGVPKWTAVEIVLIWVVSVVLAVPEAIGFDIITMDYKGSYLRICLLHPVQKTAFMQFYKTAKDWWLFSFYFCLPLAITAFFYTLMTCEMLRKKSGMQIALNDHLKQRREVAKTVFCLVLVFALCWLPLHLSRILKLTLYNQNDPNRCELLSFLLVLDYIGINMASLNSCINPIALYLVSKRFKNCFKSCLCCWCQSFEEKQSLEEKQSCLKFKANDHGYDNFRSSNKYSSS
Chain of Muscarine-M5 (P08912 whole entry): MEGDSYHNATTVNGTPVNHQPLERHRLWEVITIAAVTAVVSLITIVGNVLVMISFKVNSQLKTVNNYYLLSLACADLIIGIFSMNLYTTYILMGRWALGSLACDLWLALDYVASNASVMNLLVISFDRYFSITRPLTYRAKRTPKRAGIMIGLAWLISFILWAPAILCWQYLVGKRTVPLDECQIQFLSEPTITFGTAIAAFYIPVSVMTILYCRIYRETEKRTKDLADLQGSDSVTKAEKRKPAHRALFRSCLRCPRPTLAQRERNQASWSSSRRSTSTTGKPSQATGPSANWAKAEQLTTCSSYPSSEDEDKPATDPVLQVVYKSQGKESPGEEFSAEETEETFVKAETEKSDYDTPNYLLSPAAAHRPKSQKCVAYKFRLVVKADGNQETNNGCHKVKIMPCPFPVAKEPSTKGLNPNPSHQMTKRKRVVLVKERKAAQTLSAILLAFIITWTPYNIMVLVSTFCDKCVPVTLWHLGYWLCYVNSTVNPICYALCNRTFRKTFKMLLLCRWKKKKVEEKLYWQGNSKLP
Chain of μ-opiate (P33535 whole entry): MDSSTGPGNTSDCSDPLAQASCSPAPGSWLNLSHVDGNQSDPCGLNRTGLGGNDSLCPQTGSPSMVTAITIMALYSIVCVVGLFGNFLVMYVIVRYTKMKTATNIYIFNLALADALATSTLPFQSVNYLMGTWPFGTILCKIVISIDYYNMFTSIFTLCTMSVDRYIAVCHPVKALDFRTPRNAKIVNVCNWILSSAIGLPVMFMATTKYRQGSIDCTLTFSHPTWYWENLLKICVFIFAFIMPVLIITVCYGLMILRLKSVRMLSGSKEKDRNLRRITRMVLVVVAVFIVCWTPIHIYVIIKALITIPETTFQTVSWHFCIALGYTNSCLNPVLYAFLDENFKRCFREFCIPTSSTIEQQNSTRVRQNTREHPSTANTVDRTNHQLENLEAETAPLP
Chain of CCKA (P32238 whole entry): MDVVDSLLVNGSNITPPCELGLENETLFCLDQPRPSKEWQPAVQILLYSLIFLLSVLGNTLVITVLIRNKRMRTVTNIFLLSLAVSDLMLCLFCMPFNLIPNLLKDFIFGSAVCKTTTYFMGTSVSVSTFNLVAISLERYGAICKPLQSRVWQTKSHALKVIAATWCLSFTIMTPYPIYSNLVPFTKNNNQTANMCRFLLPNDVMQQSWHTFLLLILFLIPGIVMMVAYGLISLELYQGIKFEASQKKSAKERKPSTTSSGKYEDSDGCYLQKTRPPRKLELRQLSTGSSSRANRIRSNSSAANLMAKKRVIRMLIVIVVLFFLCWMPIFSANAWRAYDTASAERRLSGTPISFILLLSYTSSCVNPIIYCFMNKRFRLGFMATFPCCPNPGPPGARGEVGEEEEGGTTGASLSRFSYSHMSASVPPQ
Chain of 5-HT7 (P34969 whole entry): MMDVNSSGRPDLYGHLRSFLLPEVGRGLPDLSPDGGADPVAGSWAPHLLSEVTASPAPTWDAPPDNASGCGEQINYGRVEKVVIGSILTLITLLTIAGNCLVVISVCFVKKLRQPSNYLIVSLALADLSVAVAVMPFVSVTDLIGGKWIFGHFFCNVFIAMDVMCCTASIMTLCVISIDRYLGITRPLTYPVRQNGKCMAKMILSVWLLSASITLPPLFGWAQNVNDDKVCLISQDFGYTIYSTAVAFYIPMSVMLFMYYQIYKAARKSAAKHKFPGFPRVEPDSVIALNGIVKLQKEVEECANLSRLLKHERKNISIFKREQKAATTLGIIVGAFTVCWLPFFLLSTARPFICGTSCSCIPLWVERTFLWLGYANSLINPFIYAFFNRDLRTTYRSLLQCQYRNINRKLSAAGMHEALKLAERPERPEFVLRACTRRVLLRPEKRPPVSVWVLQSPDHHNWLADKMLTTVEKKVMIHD
Chain of Dopaminereuptake (Q01959 whole entry): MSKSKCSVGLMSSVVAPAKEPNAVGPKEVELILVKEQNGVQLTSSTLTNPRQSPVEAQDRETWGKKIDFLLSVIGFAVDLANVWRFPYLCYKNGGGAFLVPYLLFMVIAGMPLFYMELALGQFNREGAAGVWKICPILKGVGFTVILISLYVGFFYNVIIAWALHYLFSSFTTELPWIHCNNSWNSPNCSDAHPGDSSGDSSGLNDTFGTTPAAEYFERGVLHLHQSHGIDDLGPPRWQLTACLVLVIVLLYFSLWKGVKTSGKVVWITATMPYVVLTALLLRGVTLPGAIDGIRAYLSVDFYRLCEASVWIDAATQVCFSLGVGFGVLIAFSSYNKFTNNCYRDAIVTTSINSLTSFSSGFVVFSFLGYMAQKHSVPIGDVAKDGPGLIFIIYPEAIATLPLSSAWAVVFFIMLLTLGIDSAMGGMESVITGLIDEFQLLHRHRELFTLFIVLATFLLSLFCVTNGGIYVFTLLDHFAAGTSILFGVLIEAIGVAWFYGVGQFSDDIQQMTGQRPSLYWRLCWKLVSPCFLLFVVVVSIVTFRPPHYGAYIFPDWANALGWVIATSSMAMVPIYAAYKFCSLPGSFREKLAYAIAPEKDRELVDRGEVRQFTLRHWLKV

As to `Nc1cc2cccc(N3CCNCC3)c2oc1=O` [Compound 1, 3-amino-8-(1-piperazinyl)-2H-1-benzopyran-2-one], the inhibition constant Ki in [1] was 40 nM; in [2] it was above 1000 nM; in series [3] it was above 1000 nM; in [4], above 1000 nM; in series [5] it was above 1000 nM; in [6], 3.2 nM. The inhibition constant Ki in series [8], in [10] and in [11] was above 1000 nM throughout. In addition, the ED50 in [7] (ip, 0.5 h, read-out: ED50 Tonic extension, i.p. administration, 30 minutes after drug administration) worked out at 0.66 mg/kg; in [7] (ip, 0.5 h, i.p. administration, 30 minutes after drug administration, read-out: ED50 Clonic seizures), 3.7 mg/kg; in [7] (ip, 0.5 h, i.p. administration, 30 minutes after drug administration, read-out: ED50 Wild running), 39 mg/kg; in series [7] (ip, 1 h, i.p. administration, 60 minutes after drug administration, read-out: ED50 Clonic seizures), 1.9 mg/kg; in [7] (ip, 1 h, i.p. administration, 60 minutes after drug administration, read-out: ED50 Tonic extension), 0.26 mg/kg; in [7] (ip, 1 h, i.p. administration, 60 minutes after drug administration, read-out: ED50 Wild running), 20.5 mg/kg. For the same molecule, the ED50 in series [7] (po, 0.5 h, p.o. administration, 30 minutes after drug administration, read-out: ED50 Clonic seizures) was 4.91 mg/kg; in series [7] (po, 0.5 h, read-out: ED50 Tonic extension, p.o. administration, 30 minutes after drug administration), 1.19 mg/kg; in [7] (po, 1 h, p.o. administration, 60 minutes after drug administration, read-out: ED50 Clonic seizures), 1.34 mg/kg; in series [7] (po, 1 h, p.o. administration, 60 minutes after drug administration, read-out: ED50 Tonic extension) it was 0.27 mg/kg; in [9], 0.12 mg/kg. The behavioural changes entry in series [7] (i.p. administration) and in series [7] (oral administration) was “At none of the dosages tested” throughout.

The Ki is the equilibrium dissociation constant of an inhibitor or competing ligand from its target.
